In paper PMC5341752, “New bipyridine gold(III) dithiocarbamate-containing complexes exerted a potent anticancer activity against cisplatin-resistant cancer cells independent of p53 status” (Oncotarget, 2016):

Columns and labels:
L-540 cells = test: Growth inhibition, MTS assay, L-540 cells; assay type: cell-based, human; details: 72 h exposure, mean ± SEM
Procedure: (§1) PC3 and MCF-7 cells (2.5 × 10^3), A2780, A2780cis (4.0 × 10^3), A2780CP-16 and lung cancer cells (H460, A549, H226, H838, H157, H1975, H2122, SKLU1 and H1299) were seeded in 96-well flat-bottomed microplates (100 μL) and incubated for 24 h (to allow cell adhesion) before drug testing. The medium was then removed and replaced with fresh medium containing the gold(III) complexes (compound 1–9) to be tested at increasing concentrations (from 0.01 to 100 μM) at 37°C for 72 h. Each treatment was performed in triplicate. Cell proliferation was assayed using the MTT assay. Alternatively, L-540 cells (2.0 × 10^5/mL) were seeded in 96-well plates and treated as previously described. After treatment, cell proliferation was evaluated by the MTS assay (Promega). IC50 (i.e., the half maximal inhibitory concentration representing the concentration of a substance required for 50% in vitro inhibition) IC75 and IC90 values (Supplementary Table S1) were calculated using the CalcuSyn software (Biosoft, Ferguson, MO, USA). Dependence of activity on p53 was assessed in A2780 cells following p53 knockdown by CRISPR [48].

MCF-7 cells = test: Growth inhibition, MTT assay, MCF-7 cells; assay type: cell-based, human; details: 72 h exposure, MTT, mean ± SEM
Procedure: as §1

PC3 cells = test: Growth inhibition, MTT assay, PC3 cells; assay type: cell-based, human; details: 72 h exposure, mean ± SEM
Procedure: as §1

A2780cis cells = test: Growth inhibition, MTT assay, cisplatin-resistant A2780cis cells; assay type: cell-based, human; details: for IC50: 72 h exposure, MTT, mean ± SEM; for Fold resistance A2780cis/A2780 ratio: ratio A2780cis IC50/A2780 IC50
Procedure: as §1

A2780 cells = test: Growth inhibition, MTT assay, A2780 cells; assay type: cell-based, human; details: 72 h exposure, mean ± SEM
Procedure: as §1

[1] = system: NSCLC cell lines (H460, A549, H226, H838, H157, H1975, H2122, SKLU1, H1299); test: Cytotoxicity in a panel of NSCLC cell lines, MTT assay; assay type: cell-based; details: all NSCLC cell lines
Procedure: as §1

2780CP cells = system: 2780CP cells; parameters: method as in PMID 10643661; details: 2780CP-16 versus A2780; cited from earlier work

Compound	IC50 (L-540 cells) [µM]	IC50 (MCF-7 cells) [µM]	IC50 (PC3 cells) [µM]	IC50 (A2780cis cells) [µM]	Fold resistance A2780cis/A2780 ratio (A2780cis cells)	IC50 (A2780 cells) [µM]	fold greater potency than compounds 3, 6 and 9 [1]	fold cisplatin resistance of 2780CP cells (2780CP cells) [fold]	Fold resistance A2780cis/A2780 ratio (A2780cis cells; listed as cisplatin)
Cc1ccc2[n+](c1)[Au-]1([S]C(N(Cc3ccccc3)Cc3ccccc3)=[S+]1)[n+]1cc(C)ccc1-2.[Cl-].[Cl-] [Compound 6, [Au(5,5′-Me2BPY)(DBTC)]Cl2]	6.5 ± 0.06	18 ± 1.62	11.6 ± 1.04	15.7 ± 1.41	2.47	6.35 ± 0.06	–	–	–
Cc1cccc2[n+]1[Au-]1([S]C(N(C)C)=[S+]1)[n+]1c(C)cccc1-2.[Cl-].[Cl-] [Compound 7, [Au(6,6′-Me2BPY)(DMTC)]Cl2]	3.6 ± 0.32	0.35 ± 0.03	0.77 ± 0.07	0.23 ± 0.02	–	0.27 ± 0.02	at least 10 fold	–	–
CCN(CC)C1=[S+][Au-]2([S]1)[n+]1c(C)cccc1-c1cccc(C)[n+]12.Cl.Cl [Compound 8, [Au(6,6′-Me2BPY)(DETC)]Cl2]	6.2 ± 0.56	0.47 ± 0.04	1.6 ± 0.14	0.45 ± 0.03	–	0.73 ± 0.06	–	–	–
Cc1cccc2[n+]1[Au-]1([S]C(N(Cc3ccccc3)Cc3ccccc3)=[S+]1)[n+]1c(C)cccc1-2.[Cl-].[Cl-] [Compound 9, [Au(6,6′-Me2BPY)(DBTC)]Cl2]	35.8 ± 3.22	31 ± 2.79	11.5 ± 1.03	16 ± 1.44	2.39	6.7 ± 0.6	–	–	–
cis-[Pt(NH3)2Cl2] [Cisplatin]	2.5 ± 0.1	22.2 ± 0.2	3.3 ± 0.3	10.4 ± 0.9	6.93	1.5 ± 0.1	–	20	about 7
